Measurements: patent publication EP0576227A2, “2'-Deoxy-2',2'-difluoro(2,6,8-substituted) purine nucleosides having anti-viral and anti-cancer activity and intermediates” (ELI LILLY AND COMPANY, priority 1992, dated 1993)
Values after ≈ are worked out from the molar mass of the structure shown.

Experiments:
[1] = system: human leukemia cells (CCRF-CEM cell line); assay: Growth inhibition of human leukemia cells (CCRF-CEM cytotoxicity screen); format: cell-based; settings: concentration giving 50 percent growth inhibition; CCRF-CEM cell line
Text: In another aspect, the invention provides a method of treating susceptible neoplasms in mammals comprising administering to a mammal in need of such treatment a pharmaceutically effective amount of a compound of formula (I). […] The treatment contemplated by the present method includes both medical therapeutic and prophylactic treatment, as appropriate. The specific dosage level of the compound administered according to this invention will, of course, be determined by the circumstances surrounding the case, including, for example, the particular compound administered, the route of administration, and the condition being treated. The compounds are effectively administered orally, topically, or parenterally. […] The representative compounds of formula (I) employed in the present invention are cytotoxic as they inhibit the growth of rapidly dividing human leukemia cells (CCRF-CEM cell line). Table 1 below gives the results of testing several compounds representative of formula (I).

[2] = system: HC1 human colon carcinoma; assay: HC1 human colon carcinoma xenograft in mice, tumor weight inhibition; format: in vivo, Nu/Nu CD-1 mice; settings: Intra-Peritoneal 0.5 ml, Daily X 10
Text: The HC1 human colon carcinoma xenograft was obtained in 1987 from Drs. Peter and Janet Houghton, St. Jude Children's Hospital, Memphis, TN. The tumor is a moderately well-differentiated adenocarcinoma of the ascending colon [British Journal of Cancer, 37, p 213-223 (1987)]. The first passage tumor was stored in liquid nitrogen using standard techniques. The tumors were maintained in serial passage Nu/Nu CD-1 mice (Charles River Laboratories, Portage, MI.).
The study testing the efficacy of these compounds against HC1 human colon carcinoma was initiated by removing a tumor from passage animals and mincing it into 1 to 3 mm square fragments using sterile techniques. Tumor pieces were checked for sterility using both an Antibiotic Medium 1 and Brain Heart Infusion (Difco; Detroit, MI). Tumor pieces were implanted subcutaneously in the auxilary region of recipient mice by trocar. Drug therapy on the appropriate schedule was initiated 14 days after tumor implantation. Drugs were dissolved in Emulphor for all experiments. All animals were weighed at the beginning and end of drug treatment. Food and water were provided ad libitum. On day 14 after the initiation of therapy, two dimensional measurements (width and length) of all tumors were taken using electronic calipers interfaced to a computer. Tumor weights were calculated from these measurements using the following formula: Tumor Weight (mg) = Tumor Length (mm) X Tumor Width (mm)²/2
For all data, the tumor weight was rounded to the nearest tenth of a gram for analysis. No group is included in the analysis for therapeutic activity in which deaths attributable to drug toxicity exceeded 20 percent of the treated group. Compounds are considered active if more than 60 percent inhibition of tumor growth, as determined by tumor weight, is achieved at maximally tolerated doses.
In Table 2 which follows, Column 1 gives the example number of the compound tested; Column 2, the dose level; Column 3, the route administered; Column 4, the dosage schedule; Column 5, the percent inhibition of the tumor; and Column 6; the toxic deaths observed prior to completion of the study.

[3] = system: Human Cytomegalovirus (HCMV) strain AD169; assay: Human Cytomegalovirus Test (plaque inhibition in WI-38 cells); format: cell-based; settings: read-out: Percent Plaque Inhibition at Specified µg/ml conc.
Procedure: WI-38 cells (American Type Culture Collection; CCL-35) were seeded into 24-well plates in MEM media (GIBCO) supplemented with 10% fetal bovine serum and penicillin/streptomycin. The plates wre incbated at 37°C, in 5 percent carbon dioxide in a humidified incubator for 3 days. Human Cytomegalovirus (HCMV) strain AD169 (American Type Culture Collection) was added to each well (40 plaque forming unites in 100 µl of media) and the virus was allowed to adsorb to the cells for 2 hours at room temperature. The compound of Example 5 was dissolved in 100 percent dimethylsulfoxide at a concentration of 20 mgs/ml and diluted with media to yield final concentrations of 50, 25, 12.5, 6.25, 3.13, 1.6, 0.8, 0.4, 0.2, and 0.1 µg/ml in one set of experiments and 32, 10, 3.2, 1, and 0.32 µg/ml in another set of experiments. Each concentration was done in duplicate. In all experiments, Cytovene (DHPG) was used as a positive control.
The infected cells were incubated for 10 days at 37°C, 5 percent carbon dioxide, in an humidified incubator without changes of media. After incubation, the cells were fixed for at least 15 minutes with 10 percent formalin and rinsed with water. After rinsing, the cells were stained for at least 15 minutes with crystal violet and allowed to dry. HCMV induced plaques were counted with the aid of an iverted microscope. The number of viral plaques appearing in cells treated with each concentration of the Example 5 compound was compared to the number of viral plaques in cells left untreated ("no-drug control") and the percent inhibition of viral plaque formation was calculated. The concentration of the Example 5 compound required to inhibit viral plaque formation by 50 percent was determined using linear regression analysis.

## Nc1nc(S)c2ncn([C@@H]3O[C@H](CO)[C@@H](O)C3(F)F)c2n1 [(h), 2-deoxy-2,2-difluoro-D-ribofuranosyl-1-β-(2-amino-6-thiopurine)]
[1]
  IC50: 4.3 µg/mL (≈ 13.5 µM)

## COc1nc(N)nc2c1ncn2[C@@H]1O[C@H](CO)[C@@H](O)C1(F)F [Example 2, 2-deoxy-2,2-difluoro-D-ribofuranosyl-1-β-(2-amino-6-methoxypurine)]
[1]
  IC50: 0.037 µg/mL (≈ 0.117 µM)

## OC[C@H]1O[C@@H](n2cnc3cncnc32)C(F)(F)[C@@H]1O [Example 11, 2-deoxy-2,2-difluoro-D-ribofuranosyl-1-β-purine]
[1]
  IC50: 1.3 µg/mL (≈ 4.78 µM)

## Cc1nc(N)nc2c1ncn2[C@@H]1O[C@H](CO)[C@@H](O)C1(F)F [Example 13, 2-deoxy-2,2-difluoro-D-ribofuranosyl-1-β-(2-amino-6-methylpurine)]
[1]
  IC50: 2.6 µg/mL (≈ 8.63 µM)

## N#Cc1nc(N)nc2c1ncn2[C@@H]1O[C@H](CO)[C@@H](O)C1(F)F [Example 7, 2-deoxy-2,2-difluoro-D-ribofuranosyl-1-β-(2-amino-6-cyanopurine)]
[1]
  IC50: 2.5 µg/mL (≈ 8.01 µM)

## Nc1nc(O)nc2c1ncn2[C@@H]1O[C@H](CO)[C@@H](O)C1(F)F [Example 9, 2-deoxy-2,2-difluoro-D-ribofuranosyl-1-β-(2-hydroxyadenosine)]
[1]
  IC50: 0.7 µg/mL (≈ 2.31 µM)

## CN(C)c1nc(N)nc2c1ncn2[C@@H]1O[C@H](CO)[C@@H](O)C1(F)F [Example 4, 2-deoxy-2,2-difluoro-D-ribofuranosyl-1-β-(2-amino-6-dimethylaminopurine)]
[1]
  IC50: 4.6 µg/mL (≈ 13.9 µM)

## Nc1nc(I)c2ncn([C@@H]3O[C@H](CO)[C@@H](O)C3(F)F)c2n1 [Example 6, 2-deoxy-2,2-difluoro-D-ribofuranosyl-1-β-(2-amino-6-iodopurine)]
[1]
  IC50: 0.093 µg/mL (≈ 0.225 µM)

## CCOc1nc(N)nc2c1ncn2[C@@H]1O[C@H](CO)[C@@H](O)C1(F)F [Example 3, 2-deoxy-2,2-difluoro-D-ribofuranosyl-1-β-(2-amino-6-ethoxypurine)]
[2]; 25 mg/kg
  Percent Inhibition of Tumor: 98%
  Toxic Deaths: 0/10
[2]; 50 mg/kg
  Percent Inhibition of Tumor: 97%
  Toxic Deaths: 0/10
[2]; 100 mg/kg
  Percent Inhibition of Tumor: 98%
  Toxic Deaths: 0/10
[1]
  IC50: 0.2 µg/mL (≈ 0.604 µM)

## Nc1nc(Cl)c2ncn([C@@H]3O[C@H](CO)[C@@H](O)C3(F)F)c2n1 [Example 1, 2-deoxy-2,2-difluoro-D-ribofuranosyl-1-β-(2-amino-6-chloropurine)]
[1]
  IC50: 0.007 µg/mL (≈ 0.0218 µM)

## Nc1nc(F)nc2c1ncn2[C@@H]1O[C@H](CO)[C@@H](O)C1(F)F [Example 10, 2-deoxy-2,2-difluoro-D-ribofuranosyl-1-β-(2-fluoroadenosine)]
[1]
  IC50: 0.094 µg/mL (≈ 0.308 µM)

## Nc1nc2c(ncn2COC(CO)CO)c(=O)[nH]1 [Cytovene]
[3]; Human betaherpesvirus 5, AD169, 240 h, 0.2 µg/ml, WI-38 cells, 10 days
  inhibition at 0.2 µg/mL: 31%
[3]; Human betaherpesvirus 5, AD169, 240 h, 0.4 µg/ml, WI-38 cells, 10 days
  inhibition at 0.4 µg/mL: 31%
[3]; Human betaherpesvirus 5, AD169, 240 h, 0.8 µg/ml, WI-38 cells, 10 days
  inhibition at 0.8 µg/mL: 40%
[3]; Human betaherpesvirus 5, AD169, 240 h, 1.6 µg/ml, WI-38 cells, 10 days
  inhibition at 1.6 µg/mL: 65.5%
[3]; Human betaherpesvirus 5, AD169, 240 h, 6.25 µg/ml, WI-38 cells, 10 days
  inhibition at 6.25 µg/mL: 98%
[3]; Human betaherpesvirus 5, AD169, 240 h, 12.5 µg/ml, WI-38 cells, 10 days
  inhibition at 12.5 µg/mL: 100%
[3]; Human betaherpesvirus 5, AD169, 240 h, 25 µg/ml, WI-38 cells, 10 days
  inhibition at 25 µg/mL: 100%
[3]; Human betaherpesvirus 5, AD169, 240 h, 50 µg/ml, WI-38 cells, 10 days
  inhibition at 50 µg/mL: 100%
[3]; Human betaherpesvirus 5, AD169, WI-38, 240 h
  inhibition at 3.12 µg/mL: 91%
